{
  "source": "patent US5547866A",
  "about": "(priority 1994, dated 1996)",
  "origin": "cited, not measured here",
  "tested_on": "breast, lung and other cancers",
  "details": "background",
  "data": [
    {"smiles": "CC(=O)O[C@H]1C(=O)[C@@]2(C)[C@H]([C@H](OC(=O)c3ccccc3)[C@]3(O)C[C@H](OC(=O)[C@H](O)[C@@H](NC(=O)c4ccccc4)c4ccccc4)C(C)=C1C3(C)C)[C@]1(OC(C)=O)CO[C@@H]1C[C@@H]2O", "note": "[taxol]", "values": [
      {"measurement": "activity against breast, lung and other cancers", "value": "shown activity against breast, lung and other cancers"}
    ]}
  ]
}
